Values quoted from earlier work as cited in patent publication US9763897B2, “Therapeutic astaxanthin and phospholipid composition and associated method” (U.S. NUTRACEUTICALS, LLC, priority 2010, dated 2017).

What was measured:
[1] = test system: pro-oxidant activity of Vioxx (membrane lipid per-oxidation); conditions: in vitro
[2] = 6 mg per day, eight weeks, healthy adults
[3] = test system: LDL cholesterol oxidation; conditions: 4 mg astaxanthin per day for two weeks
[4] = test system: LDL cholesterol; conditions: 3.6 mg astaxanthin per day for two weeks
[5] = test system: lens epithelial cells; conditions: umol/L concentrations
[6] = test system: C-Reactive Protein (C-RP)

Structure (SMILES): CCCCCCCCCCCCCCCC(=O)O[C@H]1CC(C)(C)C(/C=C/C(C)=C/C=C/C(C)=C/C=C/C=C(C)/C=C/C=C(C)/C=C/C2=C(C)C(=O)[C@@H](OC(=O)CCCCCCCCCCCCCCC)CC2(C)C)=C(C)C1=O [3R,3′R-astaxanthin dipalmitate, (3R,3′R-astaxanthin dipalmitate, reference compound]
- relative absorption of astaxanthin compared to the other two isomers (men, Coral-Hinostroza et al. (2004)): higher relative absorption

Structure (SMILES): CC1=C(/C=C/C(C)=C/C=C/C(C)=C/C=C/C=C(C)/C=C/C=C(C)/C=C/C2=C(C)C(=O)[C@@H](O)CC2(C)C)C(C)(C)C[C@H](O)C1=O [Astaxanthin, 3,3′-dihydroxy-β-β-carotene-4,4′-dione]
- effect on pro-oxidant activity of Vioxx [1]: negate the pro-oxidant activity of Vioxx
- negative effect of supplementation [2]: no negative effect
- reduction of LDL cholesterol oxidation [3]: 26%
- protection of LDL cholesterol against induced in vitro oxidation [4]: protects LDL cholesterol against induced in vitro oxidation
- effect on UVB induced lipid per-oxidative mediated cell damage [5]: suppresses UVB induced lipid per-oxidative mediated cell damage
- decrease in C-reactive protein scores ([6]; 4 mg astaxanthin for eight weeks): 21%
- drop in serum C-RP levels ([6]; human subjects with high risk C-RP levels, three months of treatment): 43%

Structure (SMILES): CC1=C(/C=C/C(C)=C/C=C/C(C)=C/C=C/C=C(C)/C=C/C=C(C)/C=C/C2=C(C)C(=O)[C@@H](O)CC2(C)C)C(C)(C)C[C@H](O)C1=O [free astaxanthin diol]
- uptake relative to esterified astaxanthin (human plasma, versus esterified astaxanthin): 4-5 times
